Laboratory results taken from patent publication US7741350B1 (Cara Therapeutics, Inc., priority 2009, dated 2010).
Like-named read-outs stand apart in the source and are kept apart here.

Key:
[1] = biological target: human CB1 receptor (hCB1) (Homo sapiens, UniProt P21554); test: cAMP assay at human CB1 receptor; assay type: cell-based; details: hCB1R; maximum measurable range 30 μM; read-out: EC50 (Potency at Human CB1 determined by cAMP Assay)
Method: The ability of each of the compounds to act as agonists or inverse agonists at human CB2 and CB1 receptors (hCB2, hCB1, respectively) and at the rat CB2 receptor (rCB2) was determined by measuring changes in intracellular cyclic AMP (cAMP) levels as described in U.S. Pat. No. 7,517,874.
TR-FRET was measured using a 330-380 nm excitation filter, 615 nm and 665 nm emission filters, dichroic minor 380 nm and Z=10 mm. cAMP concentrations in each well were back-calculated from a cAMP standard curve run concurrently during each assay. Each plate contained 16 wells of forskolin stimulated cells and 16 wells of forskolin plus 1 μM CP55,940-treated cells. Concentrations of cAMP were expressed as a percent of the difference of these two groups of wells. Concentration-response data including EC50 (the concentration of compound producing 50% of the maximal response) and intrinsic activity (the percent maximal activation compared to full activation by CP55, 940) were determined using a four-parameter non-linear regression algorithm (CambridgeSoft Bioassay).

[2] = biological target: human CB2 receptor (hCB2) (Homo sapiens, UniProt P34972); test: cAMP assay at human CB2 receptor; assay type: cell-based; details: hCB2R, maximum measurable range 30 μM
Chain of human CB2 receptor (hCB2) (P34972 whole entry): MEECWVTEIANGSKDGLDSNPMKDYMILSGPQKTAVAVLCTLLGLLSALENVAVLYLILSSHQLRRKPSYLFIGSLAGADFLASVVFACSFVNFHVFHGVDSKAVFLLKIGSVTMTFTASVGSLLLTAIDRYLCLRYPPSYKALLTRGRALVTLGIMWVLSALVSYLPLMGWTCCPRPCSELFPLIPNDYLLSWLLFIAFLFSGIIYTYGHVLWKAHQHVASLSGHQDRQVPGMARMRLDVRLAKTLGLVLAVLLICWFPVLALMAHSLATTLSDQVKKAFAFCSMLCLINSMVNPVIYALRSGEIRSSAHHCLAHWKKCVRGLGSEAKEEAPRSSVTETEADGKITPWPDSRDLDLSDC
Method: TR-FRET was measured using a 330-380 nm excitation filter, 615 nm and 665 nm emission filters, dichroic minor 380 nm and Z=10 mm. cAMP concentrations in each well were back-calculated from a cAMP standard curve run concurrently during each assay. Each plate contained 16 wells of forskolin stimulated cells and 16 wells of forskolin plus 1 μM CP55,940-treated cells. Concentrations of cAMP were expressed as a percent of the difference of these two groups of wells.

[3] = EC50 (Potency at Human CB2 determined by cAMP Assay)
[4] = read-out: EC50 (Potency at Human CB2 determined by cAMP Assay)

Chain of human CB1 receptor (hCB1) (P21554 whole entry): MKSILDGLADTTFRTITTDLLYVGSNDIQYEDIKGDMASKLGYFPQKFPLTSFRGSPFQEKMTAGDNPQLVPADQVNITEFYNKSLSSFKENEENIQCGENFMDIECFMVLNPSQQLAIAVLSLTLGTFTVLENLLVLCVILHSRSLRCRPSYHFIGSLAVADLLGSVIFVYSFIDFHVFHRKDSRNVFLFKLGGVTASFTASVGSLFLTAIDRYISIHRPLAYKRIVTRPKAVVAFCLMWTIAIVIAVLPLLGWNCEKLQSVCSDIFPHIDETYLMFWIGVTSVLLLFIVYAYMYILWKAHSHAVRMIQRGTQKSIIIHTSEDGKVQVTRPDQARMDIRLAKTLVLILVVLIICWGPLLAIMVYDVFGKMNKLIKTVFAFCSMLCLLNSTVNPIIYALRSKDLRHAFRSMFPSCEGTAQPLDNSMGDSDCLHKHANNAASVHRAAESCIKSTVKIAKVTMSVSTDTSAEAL

Compound	EC50 [1] [nM]	EC50 [2, 3] [nM]	EC50 [2, 4] [nM]
CNC(=O)[C@@H](NC(=O)n1nc(-c2ccc(F)c(F)c2)c2c1CCC(O)C2)C(C)(C)C (mixture of isomers) [Compound 67, 3-(3,4-difluorophenyl)-N—((S)-3,3-dimethyl-1-(methylamino)-1-oxobutan-2-yl)-5-hydroxy-4,5,6,7-tetrahydro-1H-indazole-1-carboxamide]	< 1000	< 1000	
CNC(=O)[C@@H](NC(=O)n1nc(-c2ccc(F)c(F)c2)c2c1CCCC2)C(C)(C)C [Compound 29, (S)-3-(3,4-difluorophenyl)-N-(3,3-dimethyl-1-(methylamino)-1-oxobutan-2-yl)-4,5,6,7-tetrahydro-1H-indazole-1-carboxamide]	< 1000	< 1000	
CNC(=O)[C@@H](NC(=O)n1nc(-c2cc(F)c(F)cc2F)c2c1CCOC2)C(C)(C)C [Compound 30, (S)—N-(3,3-dimethyl-1-(methylamino)-1-oxobutan-2-yl)-3-(2,4,5-trifluorophenyl)-6,7-dihydropyrano[4,3-c]pyrazole-1(4H)-carboxamide]	< 1000	< 1000	
CC(C)(C)[C@H](NC(=O)n1nc(-c2cc(F)c(F)cc2F)c2c1CCOC2)C(=O)N1CC[C@H](O)C1 [Compound 31, N—((S)-1-((S)-3-hydroxypyrrolidin-1-yl)-3,3-dimethyl-1-oxobutan-2-yl)-3-(2,4,5-trifluorophenyl)-6,7-dihydropyrano[4,3-c]pyrazole-1(4H)-carboxamide]	< 1000		< 1000
CN1CCN(C(=O)[C@@H](NC(=O)n2nc(-c3cc(F)c(F)cc3F)c3c2CCOC3)C(C)(C)C)CC1 [Compound 32, (S)—N-(3,3-dimethyl-1-(4-methylpiperazin-1-yl)-1-oxobutan-2-yl)-3-(2,4,5-trifluorophenyl)-6,7-dihydropyrano[4,3-c]pyrazole-1(4H)-carboxamide]	< 1000	< 1000	
CC(C)(C)[C@@H](CO)NC(=O)n1nc(-c2cc(F)c(F)cc2F)c2c1CCOC2 [Compound 33, (S)—N-(1-hydroxy-3,3-dimethylbutan-2-yl)-3-(2,4,5-trifluorophenyl)-6,7-dihydropyrano[4,3-c]pyrazole-1(4H)-carboxamide]	< 1000	< 1000	
COC(=O)[C@@H](NC(=O)n1nc(-c2cc(F)c(F)cc2F)c2c1CCOC2)C(C)(C)C [Compound 34, (S)-methyl 3,3-dimethyl-2-(3-(2,4,5-trifluorophenyl)-1,4,6,7-tetrahydropyrano[4,3-c]pyrazole-1-carboxamido)butanoate]	< 1000	< 1000	
CNC(=O)[C@@H](NC(=O)n1nc(-c2cc(F)c(F)cc2F)c2c1CN(C)CC2)C(C)(C)C [Compound 38, (S)—N-(3,3-dimethyl-1-(methylamino)-1-oxobutan-2-yl)-6-methyl-3-(2,4,5-trifluorophenyl)-4,5,6,7-tetrahydro-1H-pyrazolo[3,4-c]pyridine-1-carboxamide]	< 1000	< 1000	
CNC(=O)[C@@H](NC(=O)n1nc(-c2cc(F)c(F)cc2F)c2c1CCCN2C)C(C)(C)C [Compound 39, (S)—N-(3,3-dimethyl-1-(methylamino)-1-oxobutan-2-yl)-4-methyl-3-(2,4,5-trifluorophenyl)-4,5,6,7-tetrahydro-1H-pyrazolo[4,3-b]pyridine-1-carboxamide]	< 1000	< 1000	
CN1CCc2c(c(-c3cc(F)c(F)cc3F)nn2C(=O)N[C@H](C(=O)NCCO)C(C)(C)C)C1 [Compound 40, (S)—N-(1-(2-hydroxyethylamino)-3,3-dimethyl-1-oxobutan-2-yl)-5-methyl-3-(2,4,5-trifluorophenyl)-4,5,6,7-tetrahydro-1H-pyrazolo[4,3-c]pyridine-1-carboxamide]	< 1000	< 1000	
CN1CCc2c(c(-c3cc(F)c(F)cc3F)nn2C(=O)N[C@H](C(N)=O)C(C)(C)C)C1 [Compound 41, (S)—N-(1-amino-3,3-dimethyl-1-oxobutan-2-yl)-5-methyl-3-(2,4,5-trifluorophenyl)-4,5,6,7-tetrahydro-1H-pyrazolo[4,3-c]pyridine-1-carboxamide]	< 1000		> 1000
CNC(=O)[C@@H](NC(=O)n1nc(-c2ccc(F)c(F)c2)c2c1CCN(C)C2)C(C)(C)C [Compound 42, (S)-3-(3,4-difluorophenyl)-N-(3,3-dimethyl-1-(methylamino)-1-oxobutan-2-yl)-5-methyl-4,5,6,7-tetrahydro-1H-pyrazolo[4,3-c]pyridine-1-carboxamide]	< 1000	< 1000	
CNC(=O)[C@@H](NC(=O)n1nc(-c2ccc(C(F)(F)F)cc2F)c2c1CCN(C)C2)C(C)(C)C [Compound 43, (S)—N-(3,3-dimethyl-1-(methylamino)-1-oxobutan-2-yl)-3-(2-fluoro-4-(trifluoromethyl)phenyl)-5-methyl-4,5,6,7-tetrahydro-1H-pyrazolo[4,3-c]pyridine-1-carboxamide]	< 1000		> 1000
CNC(=O)[C@@H](NC(=O)n1nc(C(C)(C)C)c2c1CCN(C)C2)C(C)(C)C [Compound 44, (S)-3-tert-butyl-N-(3,3-dimethyl-1-(methylamino)-1-oxo-butan-2-yl)-5-methyl-4,5,6,7-tetrahydro-1H-pyrazolo[4,3-c]pyridine-1-carboxamide]	> 1000	< 1000	
CN1CCc2c(c(-c3ccc(F)c(F)c3)nn2C(=O)N2CCC(O)CC2)C1 [Compound 45, (3-(3,4-difluorophenyl)-5-methyl-4,5,6,7-tetrahydro-1H-pyrazolo[4,3-c]pyridin-1-yl)(4-hydroxypiperidin-1-yl)methanone]	> 1000		> 1000
CN1CCc2c(c(-c3ccc(F)c(F)c3)nn2C(=O)NC(C)(C)C)C1 [Compound 46, N-tert-butyl-3-(3,4-difluorophenyl)-5-methyl-4,5,6,7-tetrahydro-1H-pyrazolo[4,3-c]pyridine-1-carboxamide]	< 1000		> 1000
CN1CCc2c(c(-c3ccc(F)c(F)c3)nn2C(=O)N[C@H](C(=O)N2CC[C@H](O)C2)C(C)(C)C)C1 [Compound 47, 3-(3,4-difluorophenyl)-N—((S)-1-((S)-3-hydroxypyrrolidin-1-yl)-3,3-dimethyl-1-oxobutan-2-yl)-5-methyl-4,5,6,7-tetrahydro-1H-pyrazolo[4,3-c]pyridine-1-carboxamide]	< 1000		> 1000
CN1CCc2c(c(-c3ccc(F)c(F)c3)nn2C(=O)N[C@H](CO)C(C)(C)C)C1 [Compound 48, (S)-3-(3,4-difluorophenyl)-N-(1-hydroxy-3,3-dimethylbutan-2-yl)-5-methyl-4,5,6,7-tetrahydro-1H-pyrazolo[4,3-c]pyridine-1-carboxamide]	> 1000	< 1000	
CC(C)C[C@H](NC(=O)n1nc(-c2ccc(F)c(F)c2)c2c1CCN(C)C2)C(N)=O [Compound 49, (S)—N-(1-amino-4-methyl-1-oxopentan-2-yl)-3-(3,4-difluorophenyl)-5-methyl-4,5,6,7-tetrahydro-1H-pyrazolo[4,3-c]pyridine-1-carboxamide]	< 1000	< 1000	
CC[C@H](C)[C@H](NC(=O)n1nc(-c2ccc(F)c(F)c2)c2c1CCN(C)C2)C(N)=O [Compound 50, N-((2S,3S)-1-amino-3-methyl-1-oxopentan-2-yl)-3-(3,4-difluorophenyl)-5-methyl-4,5,6,7-tetrahydro-1H-pyrazolo[4,3-c]pyridine-1-carboxamide]	< 1000	< 1000	
CC(C)(C)[C@@H](CO)NC(=O)n1nc(-c2ccc(F)c(F)c2)c2c1CCCC2 [Compound 51, (S)-3-(3,4-difluorophenyl)-N-(1-hydroxy-3,3-dimethylbutan-2-yl)-4,5,6,7-tetrahydro-1H-indazole-1-carboxamide]	< 1000	< 1000	
CNC(=O)[C@@H](NC(=O)n1nc(-c2ccc(F)c(F)c2)c2c1CCNC2)C(C)(C)C [Compound 52, (S)-3-(3,4-difluorophenyl)-N-(3,3-dimethyl-1-(methylamino)-1-oxobutan-2-yl)-4,5,6,7-tetrahydro-1H-pyrazolo[4,3-c]pyridine-1-carboxamide]	< 1000	< 1000	
CNC(=O)[C@@H](NC(=O)n1nc(-c2ccc(F)cc2)c2c1CCNC2)C(C)(C)C [Compound 53, (S)—N-(3,3-dimethyl-1-(methylamino)-1-oxobutan-2-yl)-3-(4-fluorophenyl)-4,5,6,7-tetrahydro-1H-pyrazolo[4,3-c]pyridine-1-carboxamide]	< 1000	< 1000	
CNC(=O)[C@@H](NC(=O)n1nc(-c2ccc(F)cc2)c2c1CCN(C)C2)C(C)(C)C [Compound 54, (S)—N-(3,3-dimethyl-1-(methylamino)-1-oxobutan-2-yl)-3-(4-fluorophenyl)-5-methyl-4,5,6,7-tetrahydro-1H-pyrazolo[4,3-c]pyridine-1-carboxamide]	< 1000	< 1000	
